Measured values reported in PubChem BioAssay AID330 (DTP/NCI, 2004).
Several values for one entry are separate records, joined by “and”; a condition that tells them apart may be missing. Equal values may be shown once. Toxic doses and inconclusive results are not listed.

Tested on: P388 leukemia ip, CD2F1 mice, survival T/C
Test: NCI In Vivo Anticancer Drug Screen. Data for tumor model P388 Leukemia (intraperitoneal) in CD2F1 (CDF1) mice
Conditions: endpoint: median survival time, higher = longer survival
In short: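 Mice carrying the transplanted tumor received test compound or vehicle. Survival was recorded in each group, and the value is the treated-group measurement divided by that of the vehicle-treated control group.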

[1] = dose: 50.0 mg/kg/injection, schedule: Q01DX005 (ip), vehicle: saline with Tween-80
[2] = dose: 100.0 mg/kg/injection, schedule: Q01DX005 (ip), vehicle: saline with Tween-80
[3] = dose: 200.0 mg/kg/injection, schedule: Q01DX005 (ip), vehicle: saline with Tween-80
[4] = dose: 50.0 mg/kg/injection, schedule: Q01DX005 (ip), vehicle: Klucel (hydroxypropylcellulose) (HPC)
[5] = dose: 100.0 mg/kg/injection, schedule: Q01DX005 (ip), vehicle: Klucel (hydroxypropylcellulose) (HPC)
[6] = dose: 200.0 mg/kg/injection, schedule: Q01DX005 (ip), vehicle: Klucel (hydroxypropylcellulose) (HPC)
[7] = dose: 50.0 mg/kg/injection, schedule: Q01DX009 (ip), vehicle: saline with Tween-80
[8] = dose: 100.0 mg/kg/injection, schedule: Q01DX009 (ip), vehicle: saline with Tween-80
[9] = dose: 200.0 mg/kg/injection, schedule: Q01DX009 (ip), vehicle: saline with Tween-80
[10] = dose: 50.0 mg/kg/injection, schedule: Q01DX009 (ip), vehicle: Klucel (hydroxypropylcellulose) (HPC)
[11] = dose: 100.0 mg/kg/injection, schedule: Q01DX009 (ip), vehicle: Klucel (hydroxypropylcellulose) (HPC)
[12] = dose: 200.0 mg/kg/injection, schedule: Q01DX009 (ip), vehicle: Klucel (hydroxypropylcellulose) (HPC)
[13] = dose: 200.0 mg/kg/injection, schedule: Q01DX001 (ip), vehicle: Klucel (hydroxypropylcellulose) (HPC)
[14] = dose: 50.0 mg/kg/injection, schedule: Q01DX005 (ip), vehicle: saline
[15] = dose: 100.0 mg/kg/injection, schedule: Q01DX005 (ip), vehicle: saline
[16] = dose: 200.0 mg/kg/injection, schedule: Q01DX005 (ip), vehicle: saline
[17] = dose: 100.0 mg/kg/injection, schedule: Q04DX003 (ip), vehicle: saline with Tween-80
[18] = dose: 100.0 mg/kg/injection, schedule: Q01DX001 (ip), vehicle: Klucel (hydroxypropylcellulose) (HPC)
[19] = dose: 400.0 mg/kg/injection, schedule: Q01DX001 (ip), vehicle: Klucel (hydroxypropylcellulose) (HPC)
[20] = dose: 100.0 mg/kg/injection, schedule: Q04DX002 (ip), vehicle: Klucel (hydroxypropylcellulose) (HPC)
[21] = dose: 200.0 mg/kg/injection, schedule: Q04DX002 (ip), vehicle: Klucel (hydroxypropylcellulose) (HPC)
[22] = dose: 60.0 mg/kg/injection, schedule: Q01DX005 (ip), vehicle: saline with Tween-80
[23] = dose: 120.0 mg/kg/injection, schedule: Q01DX005 (ip), vehicle: saline with Tween-80

Nc1ccc(N=Nc2cccc3c2Oc2ccccc2O3)c(N)n1
T/C [1]: 98 % of control | T/C [2]: 91 % of control | T/C [3]: 105 % of control

O=C(Nc1ccccc1)P(=S)(c1ccccc1)c1ccccc1
T/C [4]: 101 % of control and 112 % of control | T/C [5]: 104 % of control | T/C [6]: 101 % of control and 106 % of control

Cc1cccc2c(=O)c(CCl)c(-c3ccccc3)sc12
T/C [1]: 103 % of control | T/C [2]: 116 % of control | T/C [3]: 119 % of control

COC(=O)c1ccc(SCC(=O)c2ccc([N+](=O)[O-])o2)cc1
T/C (dose: 50.0 mg/kg/injection, schedule: Q01DX009 (ip), vehicle: suspension in saline): 88 % of control | T/C (dose: 100.0 mg/kg/injection, schedule: Q01DX009 (ip), vehicle: suspension in saline): 97 % of control

CCOC(=O)c1ccc(-n2c(C)nc3cc(Cl)ccc3c2=O)cc1
T/C [7]: 104 % of control | T/C [8]: 98 % of control | T/C [9]: 98 % of control

CCCCOCN(CCc1ccccc1)COCCCC
T/C [7]: 118 % of control | T/C [9]: 152 % of control

O=C(CCl)NCCCl
T/C (dose: 50.0 mg/kg/injection, schedule: Q01DX009 (ip), vehicle: saline): 97 % of control | T/C (dose: 100.0 mg/kg/injection, schedule: Q01DX009 (ip), vehicle: saline): 100 % of control

O=C1Nc2ccccc2/C1=N/N=C/c1ccccc1Cl
T/C [10]: 99 % of control and 88 % of control | T/C [11]: 86 % of control and 97 % of control | T/C [12]: 96 % of control

CCCCC(SC(CC)(C(C)=O)c1ccccc1)C(N)=O (centres undefined)
T/C [7]: 91 % of control | T/C [8]: 90 % of control | T/C [9]: 88 % of control | T/C (dose: 400.0 mg/kg/injection, schedule: Q01DX009 (ip), vehicle: saline with Tween-80): 90 % of control

Cc1ccc(S(=O)(=O)NN=C2C(C)C(c3ccccc3)NC(c3ccccc3)C2C)cc1 (centres undefined)
T/C [13]: 88 % of control

Cc1ccc(/C=C/[N+](=O)[O-])cc1
T/C (dose: 6.25 mg/kg/injection, schedule: Q01DX009 (ip), vehicle: saline sonified): 100 % of control | T/C (dose: 12.5 mg/kg/injection, schedule: Q01DX009 (ip), vehicle: saline sonified): 100 % of control | T/C (dose: 25.0 mg/kg/injection, schedule: Q01DX009 (ip), vehicle: saline sonified): 100 % of control

CC(NC(=O)CNC(=O)CN)C(N)=O (centres undefined)
T/C [14]: 101 % of control | T/C [15]: 99 % of control | T/C [16]: 101 % of control

COc1cc(C=C2C(=O)C=CC2=O)ccc1OCc1ccccc1
T/C (dose: 2.5 mg/kg/injection, schedule: Q04DX002 (ip), vehicle: saline with Tween-80): 102 % of control | T/C (dose: 5.0 mg/kg/injection, schedule: Q04DX002 (ip), vehicle: saline with Tween-80): 113 % of control | T/C (dose: 10.0 mg/kg/injection, schedule: Q04DX002 (ip), vehicle: saline with Tween-80): 107 % of control | T/C (dose: 25.0 mg/kg/injection, schedule: Q04DX002 (ip), vehicle: saline with Tween-80): 111 % of control

Nc1cc2c(c[n+](CCCCCCC[n+]3cc4c5ccccc5c(N)cc4c4ccccc43)c3ccccc23)c2ccccc12
T/C (dose: 1.56 mg/kg/injection, schedule: Q04DX003 (ip), vehicle: other): 150 % of control and 153 % of control | T/C (dose: 3.13 mg/kg/injection, schedule: Q04DX003 (ip), vehicle: other): 155 % of control | T/C (dose: 6.25 mg/kg/injection, schedule: Q04DX003 (ip), vehicle: other): 150 % of control and 173 % of control | T/C (dose: 12.5 mg/kg/injection, schedule: Q04DX003 (ip), vehicle: other): 166 % of control and 180 % of control

CCOC(=O)C(Cc1c[nH]c2ccccc12)(NC(C)=O)C(=O)OCC
T/C [17]: 100 % of control | T/C (dose: 200.0 mg/kg/injection, schedule: Q04DX003 (ip), vehicle: saline with Tween-80): 100 % of control | T/C (dose: 400.0 mg/kg/injection, schedule: Q04DX003 (ip), vehicle: saline with Tween-80): 100 % of control

O=[N+]([O-])c1ccsc1SSc1sccc1[N+](=O)[O-]
T/C (dose: 25.0 mg/kg/injection, schedule: Q04DX003 (ip), vehicle: saline with Tween-80): 102 % of control | T/C (dose: 50.0 mg/kg/injection, schedule: Q04DX003 (ip), vehicle: saline with Tween-80): 102 % of control | T/C [18]: 102 % of control | T/C [17]: 100 % of control | T/C [13]: 102 % of control | T/C [19]: 96 % of control

C[O+]=c1ccc2ccc(-c3ccccc3)sc-2c1
T/C (dose: 60.0 mg/kg/injection, schedule: Q01DX005 (ip), vehicle: Klucel (hydroxypropylcellulose) (HPC)): 106 % of control | T/C (dose: 120.0 mg/kg/injection, schedule: Q01DX005 (ip), vehicle: Klucel (hydroxypropylcellulose) (HPC)): 105 % of control

CN1CCc2[nH]c3ccccc3c2C1
T/C [20]: 100 % of control | T/C [21]: 102 % of control

C1CCC2(CC1)OCCCO2
T/C [18]: 94 % of control | T/C [13]: 99 % of control | T/C [19]: 107 % of control

O=C(O)CNCCCNCC(=O)O
T/C [14]: 94 % of control | T/C [15]: 88 % of control | T/C [16]: 99 % of control

CC1(C)OC2OC(COC(=O)c3ccccc3)C(=O)C2O1 (centres undefined)
T/C (dose: 3.13 mg/kg/injection, schedule: Q01DX009 (ip), vehicle: saline with Tween-80): 95 % of control | T/C (dose: 6.25 mg/kg/injection, schedule: Q01DX009 (ip), vehicle: saline with Tween-80): 93 % of control | T/C (dose: 12.5 mg/kg/injection, schedule: Q01DX009 (ip), vehicle: saline with Tween-80): 89 % of control

CC(C)(C)OC(=O)NC(CCC(N)=O)C(=O)O (centres undefined)
T/C [14]: 104 % of control | T/C [15]: 104 % of control | T/C [16]: 103 % of control

CC(CN=C(CC(=O)C(F)(F)F)C(F)(F)F)N=C(CC(=O)C(F)(F)F)C(F)(F)F.[Ni] (centres undefined)
T/C (dose: 100.0 mg/kg/injection, schedule: Q04DX002 (ip), vehicle: saline with Tween-80): 98 % of control | T/C (dose: 200.0 mg/kg/injection, schedule: Q04DX002 (ip), vehicle: saline with Tween-80): 98 % of control | T/C (dose: 400.0 mg/kg/injection, schedule: Q04DX002 (ip), vehicle: saline with Tween-80): 93 % of control

Clc1nc(Cl)nc(Nc2ccccc2Cl)n1
T/C (dose: 6.25 mg/kg/injection, schedule: Q01DX009 (ip), vehicle: Klucel (hydroxypropylcellulose) (HPC)): 96 % of control | T/C (dose: 12.5 mg/kg/injection, schedule: Q01DX009 (ip), vehicle: Klucel (hydroxypropylcellulose) (HPC)): 99 % of control | T/C (dose: 25.0 mg/kg/injection, schedule: Q01DX009 (ip), vehicle: Klucel (hydroxypropylcellulose) (HPC)): 96 % of control | T/C [10]: 99 % of control

c1ccc(N2C3Sc4ncccc4C2Sc2ncccc23)cc1
T/C [10]: 104 % of control | T/C [11]: 94 % of control | T/C [12]: 96 % of control

O/N=C(\CNC/C(=N\O)NO)NO
T/C [4]: 90 % of control | T/C [5]: 97 % of control | T/C [6]: 93 % of control

C=C1NC(=O)C(N)=C1C(C)=O
T/C [22]: 100 % of control | T/C [23]: 104 % of control

N#CCSCC#N
T/C [22]: 100 % of control | T/C [23]: 100 % of control | T/C (dose: 240.0 mg/kg/injection, schedule: Q01DX005 (ip), vehicle: saline with Tween-80): 104 % of control

COc1ccc(/C=C/C(=O)c2ccccc(=O)c2O)c(OC)c1OC
T/C (dose: 25.0 mg/kg/injection, schedule: Q01DX005 (ip), vehicle: Klucel (hydroxypropylcellulose) (HPC)): 105 % of control | T/C [4]: 99 % of control | T/C [5]: 109 % of control | T/C [6]: 108 % of control

COC1OCC2(C)OC(c3ccccc3)=NC2C1O (centres undefined)
T/C [20]: 90 % of control | T/C [21]: 100 % of control
